From PMC10021052, “Novel multivalent S100A8 inhibitory peptides attenuate tumor progression and metastasis by inhibiting the TLR4-dependent pathway” (Cancer Gene Therapy, 2023)
“Also recorded” adds a separate entry of the source.

What was measured:
SW480 cells = test: qPCR, S100A8-mediated IL-8 and VEGF mRNA induction in SW480 cells; format: cell-based, human; details: qPCR, normalized to β-actin
[1] = test system: p38 and p65 (NF-κB) in SW480 cells; test: Western blotting, S100A8-induced phosphorylation of p38 and p65 in SW480 cells; format: cell-based; details: 2.5 µM pretreatment, human S100A8 30 min
Experimental: Cells were lysed in lysis buffer (50 mM Tris-HCl [pH 7.4], 150 mM NaCl, 5 mM Na4P2O7, 10 mM β-glycerophosphate, 25 mM NaF, 1 mM EDTA, 1 mM EGTA, 1 mM Na3VO4, and 1% [v/v] Triton X-100) containing the cOmplete^TM Mini protease inhibitor cocktail (Roche Diagnostics, Indianapolis, IN, USA) as described previously. Cell lysates (20 µg) were separated using SDS-PAGE and transferred to an Immun-Blot PVDF membrane (Bio-Rad, Hercules, CA, USA). After blocking with Blocking One or Blocking One-P (Nacalai tesque, Kyoto, Japan), membranes were probed with the indicated antibodies, followed by HRP-labeled anti-rabbit IgG and anti-mouse IgG (GE Healthcare). Signals were visualized using Immobilon Western HRP Substrate (Millipore, Billerica, USA).
Fig. 4 Improvement of competitive inhibition activity by divalent peptide3A5. A The binding capacity was measured at the indicated concentration using an ELISA-based assay. Similar results were obtained in three independent experiments. B SW480 cells were pretreated with 2.5 µM of divalent peptide3A5, and then stimulated with human S100A8 recombinant protein. After 30 min, cell lysates were subjected to western blotting using the indicated antibody. The divalent peptide#3 or peptide3A5 reduced the expression of S100A8-mediated IL-8 (C) and VEGF (D) induction. […]

[2] = test system: SW480-transplanted xenograft; test: Tumor growth in SW480-transplanted xenograft model; format: in vivo, Balb nu/nu mice; details: every 3 days; for tumor growth, divalent peptide3A5 monotherapy: SW480 xenograft, various doses, n = 5–6 mice per group; for tumor growth, combination with 5-FU: divalent peptide3A5 5 mg/kg i.p. + 5-FU 20 mg/kg i.p.
C57BL6 mice = test: Toxicity in C57BL6 mice; format: in vivo, mouse; details: Supplementary Table 1
Description: (§1) Because S100A8 inhibitory peptides target S100A8-TLR4/MD-2, which plays a role in innate immunity, the complete functional activities of S100A8 inhibitory peptides are expected to be observed in immunocompetent models. To date, syngeneic models are one of the only options to test physiological interactions between tumors and immune cells. […] LLC cells were identified as non-responders to anti-PD-1/programmed death-ligand 1 (PD-L1) therapy. […] We then examined the effect of divalent peptide3A5 in mouse MC38 colorectal cancer cells used as anti-PD-1 responder cells. We previously confirmed that MC38 endogenously expressed TLR4/MD-2 [8].

MDSCs = MDSCs in LLC tumor-bearing mice; format: in vivo, C57BL/6J mice; details: peripheral blood of LLC-tumor-bearing mice; *P < 0.05 vs control
[3] = test system: MC38 colorectal cancer cells; test: Tumor suppression in MC38 model; format: in vivo, mouse; details: with anti-PD-1 antibody, Supplementary Fig. 3B
Description: as §1

[4] = test system: tumor cells and macrophages; test: Cytokine/chemokine induction in tumor cells and macrophages; format: cell-based; details: possible mechanism scheme, Fig. 7I
LLC tumor = test: Tumor growth in LLC tumor-bearing mice; details: *P < 0.05 vs control; for LLC tumor growth, monotherapy: 10 mg/kg i.p. every 3 days, five mice per group
Description: Balb nu/nu or C57BL/6J mice were purchased from Clea Japan Inc. (Tokyo, Japan). Mice were used for experiments at 2–3 months of age. For SW480 transplanted xenograft model, SW480 cells were subcutaneously implanted into male Balb nu/nu mice. […] For generation of the Lewis lung cancer implantation mouse model, LLC cells were subcutaneously implanted into male C57BL/6J mice. […] Anti-PD-1 antibodies (Biolegend, San Diego, CA, USA) were used for combination therapy. To determine the tumor volume, the longitudinal diameter (length) and transverse diameter (width) were determined. Tumor volume based on measurements by Vernier calipers was calculated as tumor volume = ½ (length × width^2). For in vivo S100A8 stimulation, C57BL/6J mice were intravenously injected with mammalian-derived S100A8. Four hours after the i.v. injection, mice were sacrificed, and minced mouse lungs were digested with collagenase/dispase/DNase solution. Collected cells were incubated with anti-CD11b-PE (BD Bioscience), anti-Ly6G-FITC (BD Bioscience), and anti-Ly6C-APC (BD Bioscience) antibodies, and analyzed by a flow cytometry (Cytomics FC500; Beckman Coulter, Brea, CA, USA). […] After 24 h, PKH26 (Sigma-Aldrich)-fluorescent-labeled LLC cells were intravenously injected into TCM-stimulated C57BL6J mice. The mice were sacrificed after 16 h, and minced mouse lungs were digested with collagenase/dispase/DNase solution. The recruitment of MDSCs or PKH-26 labeled tumor cells in the lungs was determined by flow cytometry (CytoFlex; Beckman Coulter).
Briefly, LLC cells were implanted s.c. into C57BL/6 J mice. […] Tumor volumes for individual mice were determined at the indicated time points. Each group included five mice. […] Tumor size was determined at the indicated time points. […] Each group included 5–6 mice. The mice were administered tumor conditioned medium once daily for five consecutive days. […] The PKH-26 labeled LLC tumor cells were injected intravenously, the mice were sacrificed, and the cell number was analyzed after 16 h. Each group included 5–6 mice.

For FQEFAILVIK [Divalent peptide3A5], which “S100A8-mediated VEGF induction (mRNA)” value (SW480 cells) is on record?
Its value is “efficiently inhibited”.

And the “S100A8-mediated IL-8 induction (mRNA)” value (SW480 cells; *P < 0.05 vs S100A8)?
Its value is “efficiently inhibited”.

What about the “inhibition of S100A8-induced phosphorylation of p38” value [1] of the same sequence?
Its value is 1.3 fold.

What about the “inhibition of S100A8-induced phosphorylation of p65 (NF-κB)” value [1] of the same sequence?
The value was 1.7 fold.

What about the “tumor growth, divalent peptide3A5 monotherapy” value [2] of the same sequence?
The value was “inhibits tumor growth”.

And the “tumor growth, divalent peptide3A5 monotherapy” value ([2]; listed as divalent peptide3A5)?
The value was “suppressed tumor progression in a dose-dependent manner; also recorded: dose-dependently inhibited tumor growth; also recorded: inhibited tumor growth in vivo”.

And the “tumor growth, combination with 5-FU” value [2]?
The value was “synergistically inhibits tumor growth with 5-FU combination”.

What about the “tumor growth, combination with 5-FU” value ([2]; listed as divalent peptide3A5) of the same sequence?
The value was “synergistically suppressed tumor growth”.

And the “tumor growth, combination with bevacizumab” value ([2]; divalent peptide3A5 5 mg/kg i.p. + bevacizumab 4 mg/kg i.p.)?
Its value is “synergistically suppressed tumor growth; also recorded: synergistically inhibited tumor growth with bevacizumab”.

What about the “toxicity in C57BL6 mice” value (C57BL6 mice) of the same sequence?
Its value is “did not display any toxicity”.

What about the MDSC cell number (MDSCs) of the same sequence?
The MDSC cell number was “reduced the cell population of MDSCs; also recorded: reduces cell number of MDSCs in peripheral blood”.

And the “MC38 tumor suppression, combination with anti-PD-1” value [3]?
Its value is “significantly improved the efficacy of anti-PD-1 therapy; also recorded: increased the efficacy of anti-PD-1 therapy”.

And the induction of cytokines/chemokines [4]?
The induction of cytokines/chemokines was “suppress the induction of cytokines/chemokines in both tumor cells and macrophages”.

And the “LLC tumor growth, monotherapy” value (LLC tumor)?
The value was “suppresses tumor progression”.

What about the “LLC tumor growth, monotherapy” value (LLC tumor; listed as divalent peptide3A5) of the same sequence?
Its value is “inhibited in vivo tumor growth; also recorded: suppressed tumor growth in tumor-bearing mice”.

And the “LLC tumor, combination with anti-PD-1 antibody” value (LLC tumor; with anti-PD-1 every 3 days, 5–6 mice per group)?
The value was “improved the efficacy of anti-programmed death (PD)1 antibody; also recorded: increased the efficacy of anti-PD-1 therapy”.
